Data taken from article PMC7952708, “In silico method for selecting residue pairs for single-molecule microscopy and spectroscopy” (Scientific Reports, 2021).
Residue numbers refer to the chain shown, from its start.

How the values were obtained:
Experiment in all cases: solution-based ALEX single-molecule FRET titration
[1] = biological target: T1, OpuAC (substrate-binding domain of OpuA) (Lactococcus lactis, UniProt Q7DAU8, K521C/T504C)
T1 construct: gene busAB
T1 sequence (Q7DAU8 320-573 T504C/K521C): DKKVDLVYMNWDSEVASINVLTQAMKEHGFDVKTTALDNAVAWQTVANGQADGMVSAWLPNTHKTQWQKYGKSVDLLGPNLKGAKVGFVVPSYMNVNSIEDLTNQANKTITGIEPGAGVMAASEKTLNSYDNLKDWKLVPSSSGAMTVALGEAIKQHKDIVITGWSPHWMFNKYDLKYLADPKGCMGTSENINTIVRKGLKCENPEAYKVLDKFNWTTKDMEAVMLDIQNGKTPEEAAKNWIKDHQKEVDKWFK

[2] = biological target: T2, OpuAC (substrate-binding domain of OpuA) (Lactococcus lactis, UniProt Q7DAU8, D320C/K453C)
T2 construct: gene busAB
T2 sequence (Q7DAU8 320-573 D320C/K453C): T1 sequence (Q7DAU8 320-573 T504C/K521C) with D1C, K134C, C185T, C202K

[3] = biological target: T3, OpuAC (substrate-binding domain of OpuA) (Lactococcus lactis, UniProt Q7DAU8, K566C/N414C)
T3 construct: gene busAB
T3 sequence (Q7DAU8 320-573 N414C/K566C): T1 sequence (Q7DAU8 320-573 T504C/K521C) with N95C, C185T, C202K, K247C

C[N+](C)(C)CC(=O)[O-] [glycine betaine]
Kd [1]: 38 µM | Kd [2]: 1 to 4 µM | Kd [3]: 1 to 4 µM
